Reference: US11542497B2, “Method for evaluating multiple different genes of interest” (THE UNIVERSITY OF TOKYO, priority 2017, dated 2023)

Key:
[1] = system: DLD1 BRCA2 (−/−) line with introduced BRCA2 variants; test: MANO-B method, olaparib at varied concentrations (Example 7); type: cell-based; settings: for relative read count (no chemical = 1): Day 12, average of n=3
Experimental: (§1) First, 3 different unique bar code sequences were added (to conduct experiments at n=3) to each of 11 different plasmids including: plasmids having wild-type BRCA2, K2729N mutation (benign), D2723H mutation (pathogenic), and 7 truncate variants in which a stop codon is introduced about every 500 amino acids (K485*, L997*, Q1502*, K1984*, C2535*, W2970*, C3304*); and piggyBac empty vector (System Biosciences, LLC). Accordingly, the total of 33 different plasmids were prepared. DLD1 BRCA2 (−/−) line was transfected with each plasmid and a transposase expression plasmid pCMV-hyPBase (Sanger Institute) in accordance with the manufacturer's protocol. In this way, cells having BRCA genes stably introduced in their genome were prepared.
(§2) Different cell lines having mutated genes tagged with bar code sequences introduced were mixed in equal numbers. At this time point, genomic DNA was once extracted (Day 0). Here, a PARP inhibitor (olaparib) was given at varied concentrations and then cultured. Genomic DNA was extracted from the cells collected at Day 12 and was used as a template to PCR-amplify each bar code sequence. After that, deep-sequencing was performed with a next-generation sequencer. The effects of each mutation on the drug sensitivity and the cell proliferation potential were assessed from a change in the ratio of bar code read counts between the case of no chemical treatment and the case of chemical treatment.
The results were normalized while the read count when no chemical was given was set to 1.
When functional BRCA2 is introduced into cells, homologous recombination-mediated repair function is restored, and thus the sensitivity to the drug, a PARP inhibitor, decreases and the cells become resistant to the inhibitor. By contrast, cells having a function-deficient BRCA2 introduced are sensitive to the PARP inhibitor, so that the relative cell count decreases when the PARP inhibitor is added. Based on such criteria, the function of each mutated BRCA2 was examined. […] Thus, the mutation was determined to be a function-preserving, benign mutation, which is consistent with past reports.

[2] = system: DLD1 BRCA2 (−/−) line with introduced BRCA2 mutations; test: MANO-B method, Clinvar BRCA2 mutations, olaparib 1 μM (Example 8, FIG. 9); type: cell-based
Experimental: as §1, §2
Mutations registered at the Clinvar (https://www.ncbi.nlm.nih.gov/clinvar/) (18 kinds of benign mutation, 52 mutations of VUS or with conflicting interpretations, and 8 kinds of malignant mutation) were evaluated by the MANO-B method using the same procedure as of Example 7 (except that olaparib was used at 1 μM). As a result, most of the benign mutations or malignant mutations registered at the Clinvar were determined to be likewise benign or malignant, respectively, by the MANO-B method (data not shown).

## O=C(c1cc(Cc2n[nH]c(=O)c3ccccc23)ccc1F)N1CCN(C(=O)C2CC2)CC1 [olaparib]
[1]; BRCA2 C2535*, olaparib 1 nM
  relative read count (no chemical = 1): 0.94
[1]; BRCA2 C2535*, olaparib 5 nM
  relative read count (no chemical = 1): 0.78
[1]; BRCA2 C2535*, olaparib 10 nM
  relative read count (no chemical = 1): 0.77
[1]; BRCA2 C2535*, olaparib 50 nM
  relative read count (no chemical = 1): 0.4
[1]; BRCA2 C2535*, olaparib 100 nM
  relative read count (no chemical = 1): 0.27
[1]; BRCA2 C2535*, olaparib 500 nM
  relative read count (no chemical = 1): 0.08
[1]; BRCA2 C2535*, olaparib 1 μM
  relative read count (no chemical = 1): 0.05
[1]; BRCA2 C3304*, olaparib 1 nM
  relative read count (no chemical = 1): 0.98
[1]; BRCA2 C3304*, olaparib 5 nM
  relative read count (no chemical = 1): 1.14
[1]; BRCA2 C3304*, olaparib 10 nM
  relative read count (no chemical = 1): 1.17
[1]; BRCA2 C3304*, olaparib 50 nM
  relative read count (no chemical = 1): 0.94
[1]; BRCA2 C3304*, olaparib 100 nM
  relative read count (no chemical = 1): 0.69
[1]; BRCA2 C3304*, olaparib 500 nM
  relative read count (no chemical = 1): 0.3
[1]; BRCA2 C3304*, olaparib 1 μM
  relative read count (no chemical = 1): 0.29
[1]; BRCA2 D2723H
  resistance of BRCA2 D2723H mutant to the PARP inhibitor: did not exhibit resistance
[1]; BRCA2 D2723H, olaparib 1 nM
  relative read count (no chemical = 1): 0.97
[1]; BRCA2 D2723H, olaparib 5 nM
  relative read count (no chemical = 1): 0.76
[1]; BRCA2 D2723H, olaparib 10 nM
  relative read count (no chemical = 1): 0.67
[1]; BRCA2 D2723H, olaparib 50 nM
  relative read count (no chemical = 1): 0.34
[1]; BRCA2 D2723H, olaparib 100 nM
  relative read count (no chemical = 1): 0.18
[1]; BRCA2 D2723H, olaparib 500 nM
  relative read count (no chemical = 1): 0.07
[1]; BRCA2 D2723H, olaparib 1 μM
  relative read count (no chemical = 1): 0.07
[1]; BRCA2 K485*, olaparib 1 nM
  relative read count (no chemical = 1): 0.79
[1]; BRCA2 K485*, olaparib 5 nM
  relative read count (no chemical = 1): 0.66
[1]; BRCA2 K485*, olaparib 10 nM
  relative read count (no chemical = 1): 0.54
[1]; BRCA2 K485*, olaparib 50 nM
  relative read count (no chemical = 1): 0.26
[1]; BRCA2 K485*, olaparib 100 nM
  relative read count (no chemical = 1): 0.15
[1]; BRCA2 K485*, olaparib 500 nM
  relative read count (no chemical = 1): 0.06
[1]; BRCA2 K485*, olaparib 1 μM
  relative read count (no chemical = 1): 0.05
[1]; BRCA2 K1984*, olaparib 1 nM
  relative read count (no chemical = 1): 0.94
[1]; BRCA2 K1984*, olaparib 5 nM
  relative read count (no chemical = 1): 0.84
[1]; BRCA2 K1984*, olaparib 10 nM
  relative read count (no chemical = 1): 0.77
[1]; BRCA2 K1984*, olaparib 50 nM
  relative read count (no chemical = 1): 0.36
[1]; BRCA2 K1984*, olaparib 100 nM
  relative read count (no chemical = 1): 0.25
[1]; BRCA2 K1984*, olaparib 500 nM
  relative read count (no chemical = 1): 0.08
[1]; BRCA2 K1984*, olaparib 1 μM
  relative read count (no chemical = 1): 0.05
[1]; BRCA2 K2729N
  resistance of BRCA2 K2729N mutant to the PARP inhibitor compared with the wild-type: substantially the same resistance
[1]; BRCA2 K2729N, olaparib 1 nM
  relative read count (no chemical = 1): 1.08
[1]; BRCA2 K2729N, olaparib 5 nM
  relative read count (no chemical = 1): 1.58
[1]; BRCA2 K2729N, olaparib 10 nM
  relative read count (no chemical = 1): 1.36
[1]; BRCA2 K2729N, olaparib 50 nM
  relative read count (no chemical = 1): 1.74
[1]; BRCA2 K2729N, olaparib 100 nM
  relative read count (no chemical = 1): 2.31
[1]; BRCA2 K2729N, olaparib 500 nM
  relative read count (no chemical = 1): 4.76
[1]; BRCA2 K2729N, olaparib 1 μM
  relative read count (no chemical = 1): 3.72
[1]; BRCA2 L997*, olaparib 1 nM
  relative read count (no chemical = 1): 0.85
[1]; BRCA2 L997*, olaparib 5 nM
  relative read count (no chemical = 1): 0.71
[1]; BRCA2 L997*, olaparib 10 nM
  relative read count (no chemical = 1): 0.54
[1]; BRCA2 L997*, olaparib 50 nM
  relative read count (no chemical = 1): 0.24
[1]; BRCA2 L997*, olaparib 100 nM
  relative read count (no chemical = 1): 0.13
[1]; BRCA2 L997*, olaparib 500 nM
  relative read count (no chemical = 1): 0.06
[1]; BRCA2 L997*, olaparib 1 μM
  relative read count (no chemical = 1): 0.07
[1]; BRCA2 Q1502*, olaparib 1 nM
  relative read count (no chemical = 1): 1
[1]; BRCA2 Q1502*, olaparib 5 nM
  relative read count (no chemical = 1): 0.88
[1]; BRCA2 Q1502*, olaparib 10 nM
  relative read count (no chemical = 1): 0.78
[1]; BRCA2 Q1502*, olaparib 50 nM
  relative read count (no chemical = 1): 0.43
[1]; BRCA2 Q1502*, olaparib 100 nM
  relative read count (no chemical = 1): 0.24
[1]; BRCA2 Q1502*, olaparib 500 nM
  relative read count (no chemical = 1): 0.12
[1]; BRCA2 Q1502*, olaparib 1 μM
  relative read count (no chemical = 1): 0.07
[1]; BRCA2 W2970*, olaparib 1 nM
  relative read count (no chemical = 1): 0.97
[1]; BRCA2 W2970*, olaparib 5 nM
  relative read count (no chemical = 1): 0.93
[1]; BRCA2 W2970*, olaparib 10 nM
  relative read count (no chemical = 1): 0.75
[1]; BRCA2 W2970*, olaparib 50 nM
  relative read count (no chemical = 1): 0.45
[1]; BRCA2 W2970*, olaparib 100 nM
  relative read count (no chemical = 1): 0.22
[1]; BRCA2 W2970*, olaparib 500 nM
  relative read count (no chemical = 1): 0.09
[1]; BRCA2 W2970*, olaparib 1 μM
  relative read count (no chemical = 1): 0.07
[1]; BRCA2 wild type, olaparib 1 nM
  relative read count (no chemical = 1): 1.22
[1]; BRCA2 wild type, olaparib 5 nM
  relative read count (no chemical = 1): 1.52
[1]; BRCA2 wild type, olaparib 10 nM
  relative read count (no chemical = 1): 1.92
[1]; BRCA2 wild type, olaparib 50 nM
  relative read count (no chemical = 1): 3.19
[1]; BRCA2 wild type, olaparib 100 nM
  relative read count (no chemical = 1): 3.82
[1]; BRCA2 wild type, olaparib 500 nM
  relative read count (no chemical = 1): 4.2
[1]; BRCA2 wild type, olaparib 1 μM
  relative read count (no chemical = 1): 4.42
[1]; Empty vector, olaparib 1 nM
  relative read count (no chemical = 1): 0.98
[1]; Empty vector, olaparib 5 nM
  relative read count (no chemical = 1): 0.82
[1]; Empty vector, olaparib 10 nM
  relative read count (no chemical = 1): 0.69
[1]; Empty vector, olaparib 50 nM
  relative read count (no chemical = 1): 0.38
[1]; Empty vector, olaparib 100 nM
  relative read count (no chemical = 1): 0.21
[1]; Empty vector, olaparib 500 nM
  relative read count (no chemical = 1): 0.07
[1]; Empty vector, olaparib 1 μM
  relative read count (no chemical = 1): 0.05
[2]; 5 mutants: D2913H, P2639L, S3291C, D23V, and I2664M
  MANO-B group of VUS / conflicting-interpretation BRCA2 mutations: impossible-to-determine (the thresholds were set to 0.1 and 0.5 and the mutations were grouped into 3 groups of benign, malignant, and impossible-to-determine mutations)
[2]; 9 mutants: R2659G, N3124I, L2604P, W31C, E2663K, W2626R, D3073G, G2609D, and P2329L
  MANO-B group of VUS / conflicting-interpretation BRCA2 mutations: malignant (the thresholds were set to 0.1 and 0.5 and the mutations were grouped into 3 groups of benign, malignant, and impossible-to-determine mutations)
[2]; 38 mutants: R2896C, A2643G, S142N, N854S, Y42C, G602V, T3387A, T2412A, E3096K, E2020K, S3319F, V1532F, E747G, S2697N, K2411T, P3054S, Q147R, S445Y, S755C, Y600C, K2075N, V159E, P41L, H595Y, F266L, R3385H, T2337A, I2627V, I1167V, N55S, V208G, P3292L, S1074C, T598A, T2071, R324T, A2911V, E1695V
  MANO-B group of VUS / conflicting-interpretation BRCA2 mutations: benign (the thresholds were set to 0.1 and 0.5 and the mutations were grouped into 3 groups of benign, malignant, and impossible-to-determine mutations)
[2]; BRCA2 G2724W
  MANO-B score, highest score of the malignant mutations: 0.03839
[2]; BRCA2 N2436I
  MANO-B score, lowest score of the benign mutations: 0.7386
